Laboratory results from patent US20070220627A1, “Methods and Compositions for the Selection of a Transgenic Plant” (PIONEER HI-BRED INTERNATIONAL, INC., priority 2006, published 2007).

Tested on: Non-transgenic maize seed from inbred N46
Experiment: Priming matrix additives: Dormex + DMSO
Format: in vivo
Conditions: 1% DMSO without Dormex, 3 hours, 95 seed
Description: Non-transgenic maize seed from inbred N46 were primed with 0, 5, 10, 15, or 30% Dormex® solutions with and without 1% DMSO. For each treatment, 96 seeds were soaked in 50 ml of Dormexe solution in a petri dish for 3 hours at room temperature. After priming the seeds were transferred into pollination bags, and dried overnight in front of a fan. Dried primed seed were then planted into flats to germinate.

SMILES: C[S+](C)[O-] [DMSO]
- Germination %: 93%
- Seedlings: 88
